Data published in US20160129005A1, “ADENINE DERIVATIVES HAVING IMMUNOMODULATING ANTI-INFLAMMATORY AND ANALGESIC ACTIVITY” (MEDESTEA RESEARCH & PRODUCTION S.p.A., priority 2011, published 2016).
Several values for one entry are separate records, joined by “and”; a condition that tells them apart may be missing. Equal values may be shown once.

Assays:
[1] = test system: C57BL/6 mice transplanted with BALB/c hearts; test: Murine heterotopic heart transplant model; type: in vivo, mouse
Experimental: The immunosuppressive potential of […] was tested on a heterotopic heart transplant model; hearts of BALB/c mice were transplanted into the abdominal cavity of C57BL/6 mice.
The beats of the heart were measured, twice weekly, by palpation; stopping of beating was regarded as a sign of transplant rejection.
Three different protocols were used for prolonging transplant survival times: the “short-term” protocol ([…] 9 mg/kg daily for 14 days), the “long-term” protocol ([…] 9 mg/kg every day until rejection), and the “Combo” protocol ([…] on alternate days: day 0, 2, 4, 6, 8, 10, 12, 14+Rapamycin 0.1 mg/kg from day 0 to day 10).
In the acute heart transplant models, the hearts of BALB/c were transplanted into the peritoneal cavity of C57BL/6 mice. The control mice invariably reject the transplant in 10 days (Ctrl: MST=7 days, n=12), (FIG. 26). The “short-term” protocol permitted indefinite survival (100 days) in 10 mice out of 12 (n=12; p=0.0001 vs. Ctrl), (FIG. 26). Similarly, the “long-term” protocol permitted indefinite survival in 8 mice out of 10 (n=10; p=0.002 vs Ctrl), and prolonged survival in the remaining 2 (16 days and 25 days; p=0.002 vs. Ctrl), (FIG. 26).
The histological sections of the hearts on day 7 of BALB/c mice, transplanted into a C57BL/6 host, and treated with the “short-term” protocol, were also analysed.

naive CD4 cells = test: Induction of T regulatory (Treg) cells from naive CD4 cells; type: cell-based, mouse; conditions: anti-CD3 stimulation 96 h, increasing concentrations; FIG. 22
Experimental: We evaluated the capacity of […] to induce in vitro the differentiation of naive CD4 cells into immunosuppressive Treg cells characterized by the phenotype CD4+CD25+ and by expression of the Foxp3 transcription factor. […] The naive CD4 cells were stimulated with anti-CD3 antibodies for 96 h in the presence of increasing concentrations of […].

male Wistar rats = test: Carrageenan-induced acute inflammation of plantar pads; type: in vivo, rat
Experimental: The role of […] was investigated by inducing inflammation of the plantar pads of rats with carrageenan, a model that mimics the state of acute inflammation in humans.
Inflammation was induced in male Wistar rats by means of injection of 0.1 ml of carrageenan at 1% in sterile saline solution in the rats' right plantar pad. Peak inflammation occurs 3 hours after injection of carrageenan; at this point (t=0), the rats are treated with […] or diclofenac or indometacin (100 μM in 0.15 ml); the antinociceptive effect of the drugs was measured at 1, 3, 6, 12 and 24 hours after their administration.

C=C(C=O)OC(C=O)n1cnc2c(N)ncnc21 (centres unmarked) [2-[1-(6-aminopurin-9-yl)-2-oxoethoxy]prop-2-enal]
prolonged survival in the remaining 2 mice ([1]; long-term protocol): 16 days and 25 days | anti-FoxP3 labelling ([1]; short-term protocol, day 7): did not show significant differences | lymphocyte tissue infiltration (haematoxylin-eosin) ([1]; short-term protocol, day 7): absent | presence of mature macrophages ([1]; short-term protocol, day 7): completely inhibited | B and T lymphocytes (anti-B220, anti-CD3) ([1]; short-term protocol, day 7, vs controls): appear to decrease numerically | vasculopathy score ([1]; short-term protocol, Ctrl=2.0±0.003, p=0.007, FIG. 28C): 0.3±0.3 | score of degree of infiltration ([1]; short-term protocol, Ctrl=2.7±0.3, p=0.01, FIG. 28B): 0.7±0.3 | differentiation of naive CD4 cells into Treg cells (CD4+CD25+ Foxp3) (naive CD4 cells): induced the differentiation of Treg cells in a manner that was dependent on the dose used | macrophages infiltrating the plantar pad (immunohistochemistry) (male Wistar rats; biopsies from plantar pads): significantly reduces the presence of macrophages | effect on thermal hyperalgesia compared with diclofenac or indometacin (male Wistar rats; single dose 6 mg/kg): greater than the effect produced by diclofenac or indometacin | thermal hyperalgesia in the plantar pads (male Wistar rats; single dose 6 mg/kg, local and intravenous, for 24 hours): significantly reduces thermal hyperalgesia
